Earlier results on one compound are cited in patent US8962010B2, “Intravaginal drug delivery devices for the delivery of macromolecules and water-soluble drugs” (Warner Chilcott Company, LLC, priority 2007, dated 2015).

SMILES strings stand for the structures.

The conditions of this data set: pH 5.

As to `CCN(Cc1cccc(S(=O)(=O)[O-])c1)c1ccc(C(=C2C=CC(=[N+](CC)Cc3cccc(S(=O)(=O)[O-])c3)C=C2)c2ccccc2S(=O)(=O)[O-])cc1.[Na+].[Na+]` [Erioglaucine], the water solubility result is reported as “more than 20 % w/w”.
